These results are taken from patent US10202350B2, “MCT4 inhibitors for treating disease” (Vettore, LLC, priority 2015, dated 2019).

Common to all, as to type: cell-based
The target in one assay is MCT1 (Homo sapiens (Human), UniProt P53985). Briefly: MCT1-mediated lactate transport in BT20 breast cancer cells. The following applies: native MCT1, 10 mM L-lactate, Table 2. The method, then: 10 μL of a 30 mM DMSO stock of BCECF-AM ester (Life Technologies) is added and the cells are incubated at 37° C. for 5 min. The cells are pelleted (300 g, 5 min), washed once with 1 mL Tyrode's Solution, pH 7.4, re-pelleted (300 g, 5 min), and resuspended in 1 mL Tyrode's Solution, pH 7.4.
2.5 μL BCECF-loaded cells, along with either 10 μL DMSO or 100×compound in DMSO, are added to 937.5 μL of Tyrode's Solution in a quartz 1.0 mL cuvette (PerkinElmer, B0631116). […] After establishing baseline BCECF fluorescence (around 10-20 s), 50 μL of 1 M sodium L-lactate (Sigma-Aldrich) is added to the cuvette (final concentration: 50 mM) and rapidly mixed. The time-dependent decrease in BCECF fluorescence (490/440 ratio) may be fit to an exponential decay curve (Prism GraphPad) to determine the rate of lactate transport.
Assay 4: MCT1-Mediated Lactate Transport in BT20 Breast Cancer Cells.
Preparation of BCECF loaded cells are as described for Assay 1. Lactate transport assay is as described for Assay 1, except 10 mM L-lactate (rather than 50 mM) is added.

In assay [1] the target is T1, MCT4 (Homo sapiens (Human), UniProt O15427). Put plainly: Lactate transport in MCT4-expressing MDA-MB-453 breast cancer cells (BCECF). As to conditions: MDA-MB-453 cells stably expressing MCT4; 50 mM L-lactate. How it is done: Assay 1: Lactate Transport in MCT4-Expressing MDA-MB-453 Breast Cancer Cells. […] The following is an exemplary procedure for assaying MCT4 activity of the compounds of Formula (I). Preparing BCECF-Loaded Cells: […] The cells are pelleted (300 g, 5 min), washed once with 1 mL Tyrode's Solution, pH 7.4, re-pelleted (300 g, 5 min), and resuspended in 1 mL Tyrode's Solution, pH 7.4. Lactate Transport Assay: […] Fluorescence measurements are performed on a PerkinElmer LS55 fluorescence spectrometer with dual excitation wavelengths achieved using a filter wheel (FL Winlab program: Fast Filter; […] Emission 535). After establishing baseline BCECF fluorescence (around 10-20 s), 50 μL of 1 M sodium L-lactate (Sigma-Aldrich) is added to the cuvette (final concentration: 50 mM) and rapidly mixed.

The target of assay [2] is T1, MCT4. Briefly: MCT4-mediated lactate transport in NCI-H358 lung adenocarcinoma cells. As to conditions: native MCT4, 50 mM L-lactate. The method, then: Cells (˜7×10^6) are trypsinized (0.05% Trypsin-EDTA), pelleted (300 g, 5 min), and resuspended in 1 mL Tyrode's Solution, pH 7.4 (119 mM NaCl, 5 mM KCl, 25 mM HEPES, pH 7.4, 2 mM CaCl2, 2 mM MgCl2, 6 g/L glucose). 10 μL of a 30 mM DMSO stock of BCECF-AM ester (Life Technologies) is added and the cells are incubated at 37° C. for 5 min. The cells are pelleted (300 g, 5 min), washed once with 1 mL Tyrode's Solution, pH 7.4, re-pelleted (300 g, 5 min), and resuspended in 1 mL Tyrode's Solution, pH 7.4.
2.5 μL BCECF-loaded cells, along with either 10 μL DMSO or 100×compound in DMSO, are added to 937.5 μL of Tyrode's Solution in a quartz 1.0 mL cuvette (PerkinElmer, B0631116). Fluorescence measurements are performed on a PerkinElmer LS55 fluorescence spectrometer with dual excitation wavelengths achieved using a filter wheel (FL Winlab program: Fast Filter; Excitation 490/440; Emission 535). After establishing baseline BCECF fluorescence (around 10-20 s), 50 μL of 1 M sodium L-lactate (Sigma-Aldrich) is added to the cuvette (final concentration: 50 mM) and rapidly mixed. The time-dependent decrease in BCECF fluorescence (490/440 ratio) may be fit to an exponential decay curve (Prism GraphPad) to determine the rate of lactate transport.
Assay 2: MCT4-Mediated Lactate Transport in NCI-H358 Lung Adenocarcinoma Cells.
NCI-H358 lung adenocarcinoma cells may be used to measure MCT4 activity in cells with high native levels of MCT4 and low levels of MCT1 and are known to those with skill in the art. Preparation of BCECF-loaded cells and lactate transport activity may be determined as described for Assay 1.

Each structure is given as a SMILES string. Bounds are passed on as bounds.

T1 sequence (O15427 whole entry, looked up): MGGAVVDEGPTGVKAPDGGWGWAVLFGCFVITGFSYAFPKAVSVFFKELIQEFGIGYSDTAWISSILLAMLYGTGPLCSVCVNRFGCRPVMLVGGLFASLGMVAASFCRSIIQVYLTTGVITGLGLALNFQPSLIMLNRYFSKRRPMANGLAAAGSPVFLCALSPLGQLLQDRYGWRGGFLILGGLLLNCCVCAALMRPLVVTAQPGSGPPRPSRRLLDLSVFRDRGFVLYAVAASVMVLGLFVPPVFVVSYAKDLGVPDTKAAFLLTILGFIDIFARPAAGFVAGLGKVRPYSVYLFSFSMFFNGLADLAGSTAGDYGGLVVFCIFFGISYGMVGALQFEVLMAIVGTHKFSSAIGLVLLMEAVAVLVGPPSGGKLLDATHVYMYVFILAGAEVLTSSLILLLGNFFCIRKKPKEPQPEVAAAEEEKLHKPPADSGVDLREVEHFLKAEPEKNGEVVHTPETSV
T1 sequence (P35613 whole entry partner, looked up): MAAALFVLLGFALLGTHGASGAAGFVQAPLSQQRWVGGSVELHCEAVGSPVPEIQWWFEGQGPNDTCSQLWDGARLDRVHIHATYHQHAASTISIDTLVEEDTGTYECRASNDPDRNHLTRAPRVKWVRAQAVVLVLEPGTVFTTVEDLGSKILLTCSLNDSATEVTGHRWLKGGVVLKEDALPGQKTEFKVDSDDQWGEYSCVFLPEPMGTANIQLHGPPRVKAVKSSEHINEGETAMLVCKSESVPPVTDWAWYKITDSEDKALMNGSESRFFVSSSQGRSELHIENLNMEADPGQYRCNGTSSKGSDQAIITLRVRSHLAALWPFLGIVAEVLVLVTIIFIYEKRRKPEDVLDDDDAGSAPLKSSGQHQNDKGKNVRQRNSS
Sequence of MCT1 (P53985 whole entry): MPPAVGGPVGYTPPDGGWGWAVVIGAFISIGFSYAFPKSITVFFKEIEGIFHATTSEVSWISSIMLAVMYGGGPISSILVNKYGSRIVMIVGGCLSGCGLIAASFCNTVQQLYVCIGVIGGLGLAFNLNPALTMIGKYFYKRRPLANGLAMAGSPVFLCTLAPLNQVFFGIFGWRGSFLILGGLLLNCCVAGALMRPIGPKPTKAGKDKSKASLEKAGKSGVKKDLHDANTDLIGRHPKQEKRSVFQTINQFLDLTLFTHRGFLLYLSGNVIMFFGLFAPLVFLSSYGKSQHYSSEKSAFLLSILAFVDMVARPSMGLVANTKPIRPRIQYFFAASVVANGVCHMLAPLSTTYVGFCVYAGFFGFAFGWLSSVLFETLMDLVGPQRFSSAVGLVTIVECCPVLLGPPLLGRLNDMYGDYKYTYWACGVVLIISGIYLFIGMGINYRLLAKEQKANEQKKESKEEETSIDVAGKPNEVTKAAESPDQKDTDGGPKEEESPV
Sequence of MCT1 (P35613 140-385 partner): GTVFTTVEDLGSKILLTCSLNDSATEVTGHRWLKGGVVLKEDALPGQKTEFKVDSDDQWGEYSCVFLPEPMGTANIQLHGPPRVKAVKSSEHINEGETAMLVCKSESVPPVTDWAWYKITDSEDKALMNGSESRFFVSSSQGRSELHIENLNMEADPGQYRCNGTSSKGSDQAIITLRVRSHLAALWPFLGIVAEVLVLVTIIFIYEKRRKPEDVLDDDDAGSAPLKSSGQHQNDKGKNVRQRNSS

Consider `O=C(O)COCc1cc(-c2ccc(Cl)cc2)n(Cc2ccc(Cl)cc2Cl)n1` [Example 6, 2-[[5-(4-Chlorophenyl)-1-[(2,4-dichlorophenyl)methyl]pyrazol-3-yl]methoxy]acetic acid], for which the half-inhibitory concentration (IC50) (commonly the concentration at which inhibition is half-maximal) at MCT1 was 6600 nM; at MCT4 [1] it was 2400 nM; at MCT4 [2], 4600 nM.
The matching figures for `Cc1cccc(-c2cc(COC(C)(C)C(=O)O)nn2Cc2ccccc2Cl)c1` [Example 11, 2-[[1-[(2-Chlorophenyl)methyl]-5-(m-tolyl)pyrazol-3-yl]methoxy]-2-methyl-propanoic acid]: 29000 nM, 45 nM and 25 nM.
For `CC(C)(OCc1cc(-c2ccc(Cl)cc2)n(Cc2ccc(Cl)cc2)n1)C(=O)O` [Example 2], in that order: 29000 nM, 450 nM and 240 nM.
The matching figures for `CC(C)(OCc1cc(C2CCCC2)n(Cc2ccccc2Cl)n1)C(=O)O` [Example 16, 2-[[1-[(2-Chlorophenyl)methyl]-5-cyclopentyl-pyrazol-3-yl]methoxy]-2-methyl-propanoic acid]: 73000 nM, 1000 nM and 640 nM.
As to `CC(C)(OCc1cc(-c2ccccc2)n(Cc2cccc(Cl)c2)n1)C(=O)O` [Example 1, 2-[[1-[(3-Chlorophenyl)methyl]-5-phenyl-pyrazol-3-yl]methoxy]-2-methyl-propanoic Acid], the half-maximal inhibitory concentration (IC50) came to 50000 nM on MCT1, 340 nM at MCT4 [1] and 140 nM on MCT4 [2].
Consider `CC(C)(OCc1cc(-c2cccc(F)c2)n(Cc2ccccc2Cl)n1)C(=O)O` [Example 12, 2-[[1-[(2-Chlorophenyl)methyl]-5-(3-fluorophenyl)pyrazol-3-yl]methoxy]-2-methyl-propanoic acid], for which the results for the IC50 at MCT1, at MCT4 [1] and against MCT4 [2] were 58000 nM, 38 nM and 49 nM, respectively.
For `CC(C)(OCc1cc(-c2ccc(Cl)cc2)n(Cc2ccccc2Cl)n1)C(N)=O` [Example 20, 2-[[5-(4-Chlorophenyl)-1-[(2-chlorophenyl)methyl]pyrazol-3-yl]methoxy]-2-methyl-propanamide], in that order: 7900 nM, 17000 nM and 22000 nM.
With `O=C(O)C1(OCc2cc(-c3ccc(Cl)cc3)n(Cc3ccccc3Cl)n2)CC1` [Example 17, 1-[[5-(4-Chlorophenyl)-1-[(2-chlorophenyl)methyl]pyrazol-3-yl]methoxy]cyclopropanecarboxylic acid], the IC50 came to 1200 nM on MCT1, 440 nM at MCT4 [1] and 860 nM against MCT4 [2].
Consider `CC(C)(OCc1cc(-c2ccccc2Cl)n(Cc2ccccc2Cl)n1)C(=O)O` [Example 9, 2-[[5-(2-Chlorophenyl)-1-[(2-chlorophenyl)methyl]pyrazol-3-yl]methoxy]-2-methyl-propanoic acid], for which the IC50 at MCT1 was determined as 39000 nM; at MCT4 [1], 320 nM; on MCT4 [2], 340 nM.
As to `CC(C)(OCc1cc(C2CCCCC2)n(Cc2ccccc2Cl)n1)C(=O)O` [Example 15, 2-[[1-[(2-Chlorophenyl)methyl]-5-cyclohexyl-pyrazol-3-yl]methoxy]-2-methyl-propanoic acid], the concentration for half-maximal inhibition (IC50) at MCT1 was above 33000 nM; at MCT4 [1], 900 nM; at MCT4 [2], 440 nM.
The matching figures for `CC(C)(OCc1cc(-c2ccc(Cl)cc2)n(Cc2ccncc2)n1)C(=O)O` [Example 21, 2-[[5-(4-chlorophenyl)-1-(4-pyridylmethyl)pyrazol-3-yl]methoxy]-2-methyl-propanoic acid]: 300000 nM, 35000 nM and 48000 nM.
For `CC(C)(OCc1cc(-c2ccc(Cl)cc2)n(Cc2ccccc2F)n1)C(=O)O` [Example 19, 2-[[5-(4-Chlorophenyl)-1-[(2-fluorophenyl)methyl]pyrazol-3-yl]methoxy]-2-methyl-propanoic acid], in that order: 57000 nM, 110 nM and 160 nM.
For the compound `CC(C)(OCc1cc(-c2ccc(Cl)cc2)n(Cc2ccccc2)n1)C(=O)O` [Example 7, 2-[[1-Benzyl-5-(4-Chlorophenyl)pyrazol-3-yl]methoxy]-2-methyl-propanoic acid], the 50% inhibitory concentration (IC50) on MCT1 came out at 70000 nM; on MCT4 [1], 720 nM; against MCT4 [2] it was 460 nM.
The matching figures for `CC(C)(OCc1cc(-c2ccccc2)n(Cc2ccccc2Cl)n1)C(=O)O` [Example 8, 2-[[1-[(2-Chlorophenyl)methyl]-5-phenyl-pyrazol-3-yl]methoxy]-2-methyl-propanoic acid]: 46000 nM, 69 nM and 81 nM.
For the compound `CC(C)(OCc1cc(-c2nccs2)n(Cc2ccccc2Cl)n1)C(=O)O` [Example 18, 2-[[1-[(2-Chlorophenyl)methyl]-5-thiazol-2-yl-pyrazol-3-yl]methoxy]-2-methyl-propanoic acid], the half-maximal inhibitory concentration (IC50) against MCT1 came to 45000 nM; on MCT4 [1], 5300 nM; at MCT4 [2], 4200 nM.
The matching figures for `CC(C)(OCc1cc(-c2ccc(Cl)cc2)n(Cc2ccc(Cl)cc2Cl)n1)C(=O)O` [Example 5, 2-[[5-(4-Chlorophenyl)-1-[(2,4-dichlorophenyl)methyl]pyrazol-3-yl]methoxy]-2-methyl-propanoic acid]: 1800 nM, 160 nM and 63 nM.
The matching figures for `CC(C)(OCc1cc(-c2ccc(F)cc2)n(Cc2ccccc2Cl)n1)C(=O)O` [Example 4, 2-[[1-[(2-Chlorophenyl)methyl]-5-(4-fluorophenyl)pyrazol-3-yl]methoxy]-2-methyl-propanoic acid]: 33000 nM, 68 nM and 54 nM.
On to `CC(C)(OCc1cc(-c2ccc(Cl)cc2)n(Cc2ccccc2Cl)n1)C(=O)O` [Example 3, 2-[[5-(4-Chlorophenyl)-1-[(2-chlorophenyl)methyl]pyrazol-3-yl]methoxy]-2-methyl-propanoic acid], for which the results for the IC50 at MCT1, on MCT4 [1] and against MCT4 [2] were 25000 nM, 72 nM and 60 nM, respectively.
